Measured values as given in patent publication US8981094B2, “Piperidine/piperazine derivatives” (Janssen Pharmaceutica N.V., priority 2007, dated 2015).

Columns and labels:
[1] = target: T1, human DGAT1 (Homo sapiens, UniProt O75907); assay: Inhibition of DGAT1 activity, FlashPlate assay with DGAT1 membrane preparations and substrate micelles; format: biochemical; settings: pIC50 = -logIC50, IC50 values expressed in M
T1 construct: FLAG (N); made in house; host or cells: SF9 insect cells (pFastBac baculovirus); total cell membranes
T1 sequence (O75907 1-488): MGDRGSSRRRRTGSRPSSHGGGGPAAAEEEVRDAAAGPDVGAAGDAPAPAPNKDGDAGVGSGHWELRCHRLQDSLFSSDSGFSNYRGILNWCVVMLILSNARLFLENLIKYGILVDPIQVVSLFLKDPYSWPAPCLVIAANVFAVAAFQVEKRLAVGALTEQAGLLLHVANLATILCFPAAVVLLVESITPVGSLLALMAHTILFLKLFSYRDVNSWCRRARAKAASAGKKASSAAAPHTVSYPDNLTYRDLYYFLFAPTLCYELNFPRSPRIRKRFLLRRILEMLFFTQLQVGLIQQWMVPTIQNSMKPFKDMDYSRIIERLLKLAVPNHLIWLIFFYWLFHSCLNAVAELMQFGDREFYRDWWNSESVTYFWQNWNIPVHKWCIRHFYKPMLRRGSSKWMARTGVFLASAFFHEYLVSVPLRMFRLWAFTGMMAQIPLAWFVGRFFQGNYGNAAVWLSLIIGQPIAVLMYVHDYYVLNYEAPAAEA
How it was run: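 FLAG-tagged human DGAT1 membranes (expressed in Sf9 cells) were incubated 120 min at 37° C. in 50 mM Tris-HCl pH 7.4 with 150 mM MgCl2, 1 mM EDTA, 0.2% BSA, 50 μM DAG micelles (PC/PS) and 8.4 μM [^3H]-oleoylCoA. The reaction was stopped with N-ethylmaleimide and read as FlashPlate radioluminescence. Responses were normalized to enzyme/no-enzyme controls to fit dose-response curves.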

Compound | melting point | IC50 [1]
O=C(CCc1ccccn1)Nc1ccc(N2CCN(C(=O)Nc3c(Cl)cccc3Cl)CC2)cc1 [Compound 9] | 187 to 188 °C | 550 nM
CC(C)NC(=O)N(C)CC(=O)Nc1ccc(N2CCN(C(=O)Nc3c(Cl)cccc3Cl)CC2)cc1 [Compound 14] | 217 to 219 °C | 316 nM
CS(=O)(=O)N1CCN(CC(=O)Nc2ccc(N3CCN(C(=O)Nc4c(Cl)cccc4Cl)CC3)cc2)CC1 [Compound 26] | 232 to 234 °C | 692 nM
O=C(CCCc1ccccc1)Nc1ccc(N2CCN(C(=O)C(O)c3ccc(F)c(F)c3)CC2)cc1 (stereo not drawn) [Compound 341] | – | 3720 nM
COc1ccc(CC(=O)Nc2ccc(N3CCN(C(=O)C4(c5c(Cl)cccc5Cl)CC4)CC3)cc2)cc1 [Compound 342] | – | 3980 nM
O=C(CCCc1ccccc1)Nc1ccc(N2CCN(C(=O)C(O)c3ccc(F)cc3)CC2)cc1 (stereo not drawn) [Compound 344] | – | 4070 nM
CC(C(=O)N1CCN(c2ccc(NC(=O)CCCc3ccccc3)cc2)CC1)c1ccc(O)cc1 (stereo not drawn) [Compound 347] | – | 5010 nM
COc1cc(C(O)C(=O)N2CCN(c3ccc(NC(=O)CCCc4ccccc4)cc3)CC2)ccc1O (stereo not drawn) [Compound 348] | – | 5250 nM
O=C(CCCc1ccccc1)Nc1ccc(N2CCN(C(=O)C(O)c3ccc(Br)cc3)CC2)cc1 (stereo not drawn) [Compound 349] | – | 6030 nM
COc1ccc(CC(=O)Nc2ccc(N3CCN(C(=O)Cc4c(Cl)cc(CN5CCCC5)cc4Cl)CC3)cc2)cc1 [Compound 351] | – | 245 nM
COc1ccc(CC(=O)Nc2ccc(N3CCN(C(=O)C(O)c4ccc(CN5CCCC5)cc4Cl)CC3)cc2)cc1 (stereo not drawn) [Compound 352] | – | 339 nM

Stronger by IC50 [1], values ahead:

melting point | IC50 [1] | Compound
285.3 °C | 4.47 nM | O=C(CC1CCCCC1)Nc1ccc(N2CCN(C(=O)Nc3c(Cl)cccc3Cl)CC2)cc1 [Compound 1]
268.2 °C | 7.59 nM | O=C(CCOc1ccccc1)Nc1ccc(N2CCN(C(=O)Nc3c(Cl)cccc3Cl)CC2)cc1 [Compound 3]
247 to 249 °C | 2.69 nM | O=C(CNc1ccccc1Cl)Nc1ccc(N2CCN(C(=O)Nc3c(Cl)cccc3Cl)CC2)cc1 [Compound 4]
242.6 °C | 151 nM | CC(C)(C)OC(=O)NC1(C(=O)Nc2ccc(N3CCN(C(=O)Nc4c(Cl)cccc4Cl)CC3)cc2)CCCC1 [Compound 5]
232 to 233 °C | 8.51 nM | C=CCN(CCC(=O)Nc1ccc(N2CCN(C(=O)Nc3c(Cl)cccc3Cl)CC2)cc1)c1ccccc1Cl [Compound 7]
245.1 °C | 8.91 nM | CCCCCCC(=O)Nc1ccc(N2CCN(C(=O)Nc3c(Cl)cccc3Cl)CC2)cc1 [Compound 8]
238.7 °C | 6.17 nM | Cc1cc(C)c(NC(=O)N2CCN(c3ccc(NC(=O)CCCc4ccccc4)cc3)CC2)c(Br)c1 [Compound 11]
209.8 °C | 182 nM | O=C(CCCc1ccccc1)Nc1ccc(N2CCN(C(=O)Nc3c(Cl)ccc4c3CCO4)CC2)cc1 [Compound 12]
183 to 184 °C | 4.68 nM | COc1ccc(CC(=O)Nc2ccc(N3CCN(C(=O)Nc4c(Cl)cc(O)cc4Cl)CC3)cc2)cc1 [Compound 16]
178.2 °C | 120 nM | O=C(CCCc1ccccc1)Nc1ccc(N2CCN(/C=C/C(=O)c3c(Cl)cccc3Cl)CC2)cc1 [Compound 18]
142.3 °C | 30.9 nM | O=C(CCCc1ccccc1)Nc1ccc(N2CCN(C(=O)C(O)c3ccccc3Cl)CC2)cc1 (stereo not drawn) [Compound 19]
244 to 246 °C | 72.4 nM | O=C(CNc1ccccc1)Nc1ccc(N2CCN(C(=O)Nc3c(Cl)cccc3Cl)CC2)cc1 [Compound 21]
248 to 249 °C | 14.8 nM | Cc1ccc(NCC(=O)Nc2ccc(N3CCN(C(=O)Nc4c(Cl)cccc4Cl)CC3)cc2)c(C)c1 [Compound 22]
196.1 °C | 1.95 nM | O=C(CCCc1ccccc1)Nc1ccc(N2CCN(C(=O)Nc3c(Cl)cc(CO)cc3Cl)CC2)cc1 [Compound 28]
